The test system of one data set is PC-3. Kind of data set: Cytotoxicity against human PC3 cells with PTEN mutant after 72 hrs. The class given is functional, cell-based. The conditions noted are these: PC-3, 72 h.
Data set [1] in a line: Solubility at pH 7.4. Format: physicochemical. The conditions noted are these: buffer.
A short description of data set [2]: in vitro. To be noted: rat, liver microsomes.
Description: Half life in rat liver microsomes
For another data set, the system named is MDA-MB-361. The data set can be described thus: cells. To be noted: Homo sapiens, MDA-MB-361, 72 h.
The target of data set [3] is Serine/threonine-protein kinase mTOR (Homo sapiens, UniProt P42345). The data set can be described thus: Inhibition of mTOR by DELFIA.
Data set [4] has as its target Phosphatidylinositol 4,5-bisphosphate 3-kinase catalytic subunit alpha isoform (Homo sapiens, UniProt P42336).
Data set [5] is described as follows: Solubility at pH 3. The class given is physicochemical. To be noted: buffer.
A short description of data set [6]: Drug level in human MDA-MB-361 cells xenografted nude mouse at 25 mg/kg, iv after 8 hrs. Also on record: dose 25 mg/kg, route intravenous. To be noted: blood, read-out: Drug uptake. The class given is ADME, organism-based. A general note: A xenograft is tissue or cells of one species grown in another, often human tumour cells in immunodeficient mice.
Data set [7] in a line: in vitro. The conditions noted are these: mouse, liver microsomes.
Description: Half life in mouse liver microsomes
Data set [8] in a line: in vitro. The conditions noted are these: human, liver microsomes.
Description: Half life in human liver microsomes

Values after ≈ are worked out from the molar mass of the structure shown. Bounds are passed on as bounds.

The IC50 is the midpoint of a concentration-inhibition curve. Higher therefore signals weaker potency in that assay. By solubility is commonly meant the concentration that dissolves in the medium under given conditions. A lower solubility goes with a poorly soluble substance. By half-life is commonly meant the time in which the quantity being followed falls by half. A higher half-life goes with slow loss.

Sequence of Phosphatidylinositol 4,5-bisphosphate 3-kinase catalytic subunit alpha isoform (P42336 whole entry, canonical isoform): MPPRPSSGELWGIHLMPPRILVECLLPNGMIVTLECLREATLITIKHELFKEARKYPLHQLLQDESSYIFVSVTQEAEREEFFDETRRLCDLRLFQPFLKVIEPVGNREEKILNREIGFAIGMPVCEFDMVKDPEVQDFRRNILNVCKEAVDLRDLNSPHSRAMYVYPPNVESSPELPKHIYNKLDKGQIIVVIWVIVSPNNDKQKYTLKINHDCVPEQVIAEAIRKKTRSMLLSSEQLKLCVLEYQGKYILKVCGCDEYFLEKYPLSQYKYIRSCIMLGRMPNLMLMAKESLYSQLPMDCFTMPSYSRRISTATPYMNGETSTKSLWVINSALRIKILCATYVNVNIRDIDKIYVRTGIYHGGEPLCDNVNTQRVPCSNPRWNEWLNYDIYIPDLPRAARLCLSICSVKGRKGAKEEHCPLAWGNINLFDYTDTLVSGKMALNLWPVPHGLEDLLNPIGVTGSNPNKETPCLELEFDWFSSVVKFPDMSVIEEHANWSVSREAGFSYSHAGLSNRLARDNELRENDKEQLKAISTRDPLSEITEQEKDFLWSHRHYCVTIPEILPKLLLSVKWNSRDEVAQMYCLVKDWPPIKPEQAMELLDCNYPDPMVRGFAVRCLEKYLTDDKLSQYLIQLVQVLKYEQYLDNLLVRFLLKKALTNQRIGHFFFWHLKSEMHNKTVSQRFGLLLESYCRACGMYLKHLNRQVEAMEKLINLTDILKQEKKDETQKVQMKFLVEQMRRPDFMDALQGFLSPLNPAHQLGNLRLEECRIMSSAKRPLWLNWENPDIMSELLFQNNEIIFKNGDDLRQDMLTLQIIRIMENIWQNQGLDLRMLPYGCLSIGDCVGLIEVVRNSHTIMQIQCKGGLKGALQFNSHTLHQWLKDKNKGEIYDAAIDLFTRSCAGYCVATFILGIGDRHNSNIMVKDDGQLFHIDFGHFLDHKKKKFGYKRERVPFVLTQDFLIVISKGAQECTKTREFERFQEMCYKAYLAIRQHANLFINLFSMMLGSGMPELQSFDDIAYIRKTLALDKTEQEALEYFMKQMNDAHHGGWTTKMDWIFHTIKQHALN

As for `CN(C)Cc1c[nH]c2c(N3CCOCC3)nc(-c3cccc(CO)c3)nc12`, in the data set on PC-3, the IC50 was above 3160 nM.

Consider `OCc1cccc(-c2nc(N3CCOCC3)c3[nH]cc(CN4CCCC4)c3n2)c1`, for which the IC50 with PC-3 was above 3160 nM.

In turn, `Oc1cccc(-c2nc(N3CCOCC3)c3[nH]cc(C4CCN(Cc5ccc(F)cc5)CC4)c3n2)c1` returned an IC50 in the data set on PC-3 of 1650 nM.

In the data set with PC-3, `OCc1cccc(-c2nc(N3CCOCC3)c3cc[nH]c3n2)c1` came in with an IC50 of 1210 nM. Also, the solubility in data set [1] came to 38 µg/mL (≈ 122 µM).

With `CNC(=O)Nc1ccc(-c2nc(N3CCOCC3)c3ccn(CCN(C)C)c3n2)cc1`, in the data set on PC-3, the IC50 was 437 nM. Also, the solubility in [1] is above 100 µg/mL. This molecule also gave a half-life in the data set “in vitro [2]” of 9 min.

As for `O=C(Nc1ccncc1)Nc1ccc(-c2nc(N3CCOCC3)c3cc[nH]c3n2)cc1`, in the data set on PC-3, the IC50 came to 187 nM.

`O=C(Nc1ccncc1)Nc1ccc(-c2nc(N3CCOCC3)c3ccn(CCN4CCCC4)c3n2)cc1` registered an IC50 in the data set with PC-3 of 555 nM. Further, the solubility in data set [1] worked out at 28 µg/mL (≈ 54.6 µM). Further, the half-life in “in vitro [2]” was 4 min.

In the data set with PC-3, `CN(C)CCn1ccc2c(N3CCOCC3)nc(-c3cccc(O)c3)nc21` displayed an IC50 of 1180 nM. In [1], this molecule yielded a solubility above 100 µg/mL.

For the molecule `OCc1cccc(-c2nc(N3CCOCC3)c3[nH]ccc3n2)c1`, the IC50 with PC-3 is 2080 nM.

In turn, `Oc1cccc(-c2nc(N3CCOCC3)c3cc[nH]c3n2)c1` gave an IC50 in the data set with PC-3 of 580 nM. The same molecule registered a solubility in data set [1] of 2 µg/mL (≈ 6.75 µM).

On to `CN(C)CCn1ccc2c(N3CCOCC3)nc(-c3cccc(CO)c3)nc21`, for which the IC50 in the data set on PC-3 came to 691 nM. Further, in [1], the solubility is above 100 µg/mL.

In the data set with PC-3, `O=C(Nc1ccncc1)Nc1ccc(-c2nc(N3CCOCC3)c3ccn(CCN4CCCCC4)c3n2)cc1` gave an IC50 of 634 nM. Further, the solubility in data set [1] worked out at 47 µg/mL (≈ 89.2 µM). Also, in the data set “in vitro [2]”, the half-life worked out at 4 min.

`CN(C)CCNCCn1ccc2c(N3CCOCC3)nc(-c3ccc(NC(=O)Nc4ccncc4)cc3)nc21` had an IC50 with PC-3 of 1150 nM. This molecule returned a solubility in data set [1] of 58 µg/mL (≈ 110 µM). The molecule also came in with a half-life in “in vitro [2]” of 8 min.

As for `O=C(Nc1ccncc1)Nc1ccc(-c2nc(N3CCOCC3)c3ccn(CC(F)(F)F)c3n2)cc1`, the IC50 was 82 nM in the data set on PC-3 and 53 nM in the data set on MDA-MB-361. Besides, in data set [1], the concentration in solution (solubility) was 1 µg/mL (≈ 2.01 µM). The same molecule displayed a half-life in the data set “in vitro [2]” above 30 min.

As to `COC(Cn1ccc2c(N3CCOCC3)nc(-c3ccc(NC(=O)Nc4ccncc4)cc3)nc21)OC`, in the data set with PC-3, 72 nM corresponded to half-maximal inhibition (IC50). For the same molecule, the solubility in [1] worked out at 2 µg/mL (≈ 3.97 µM). Also, the half-life in the data set “in vitro [2]” came to 4 min.

Consider `O=CCn1ccc2c(N3CCOCC3)nc(-c3ccc(NC(=O)Nc4ccncc4)cc3)nc21`, for which, in the data set on PC-3, the IC50 was determined as 639 nM. Further, the solubility in data set [1] was found to be 2 µg/mL (≈ 4.37 µM).

On to `CN(C)CCn1ccc2c(N3CCOCC3)nc(-c3ccc(NC(=O)Nc4ccc(F)cc4)cc3)nc21`, for which the figures for the IC50 (in [3]; with PC-3) were 8 nM and 189 nM, respectively.

As to `CCNC(=O)Nc1ccc(-c2nc(N3CCOCC3)c3ccn(CCN(C)C)c3n2)cc1`, the solubility in data set [1] is above 100 µg/mL. In the data set “in vitro [2]”, this molecule had a half-life of 8 min.

In the data set on PC-3, `CN1CCN(CCn2ccc3c(N4CCOCC4)nc(-c4ccc(NC(=O)Nc5ccncc5)cc4)nc32)CC1` yielded an IC50 of 964 nM. Also, the solubility in [1] is above 100 µg/mL. In addition, the half-life in the data set “in vitro [2]” came out at 4 min.

Consider `O=C(Nc1ccncc1)Nc1ccc(-c2nc(N3CCOCC3)c3ccn(CCO)c3n2)cc1`, for which the results for the IC50 (in the data set on PC-3; in [4]) were 91 nM and 5 nM, respectively. This molecule also had a solubility in data set [1] of 1 µg/mL (≈ 2.18 µM). Moreover, in “in vitro [2]”, the half-life was determined as 22 min.

For the molecule `CN(C)CCN(C)C(=O)c1ccc(NC(=O)Nc2ccc(-c3nc(N4CCOCC4)c4ccn(CC(F)(F)F)c4n3)cc2)cc1`, the IC50 in data set [3] was 0.6 nM; in the data set on PC-3, 13 nM; with MDA-MB-361, below 3 nM. For the same molecule, the solubility in data set [5] is above 100 µg/mL. Moreover, the concentration at 8 h in data set [6] turned out to be 1730 ng/mL. Besides, the half-life was 29 min in the data set “in vitro [2]”, above 30 min in “in vitro [7]” and above 30 min in the data set “in vitro [8]”.

For `CN(C)CCNC(=O)c1ccc(NC(=O)Nc2ccc(-c3nc(N4CCOCC4)c4ccn(CC(F)(F)F)c4n3)cc2)cc1`, the IC50 was found to be 0.4 nM in data set [3], 23 nM with PC-3, 1.4 nM in [4] and 10.3 nM in the data set on MDA-MB-361. For the same molecule, in data set [5], the solubility came to 68 µg/mL (≈ 111 µM). Further, the half-life in the data set “in vitro [2]” and in “in vitro [8]” was above 30 min each time.

Take `CN1CCN(C(=O)c2ccc(NC(=O)Nc3ccc(-c4nc(N5CCOCC5)c5ccn(CC(F)(F)F)c5n4)cc3)cc2)CC1`: the IC50 in data set [3] is 1.7 nM; with PC-3, 17 nM; in [4] it was 2.4 nM; in the data set on MDA-MB-361, 6.7 nM. In data set [5], this molecule returned a solubility above 100 µg/mL. Further, the concentration at 8 h in data set [6] amounted to 1680 ng/mL. In addition, the half-life in “in vitro [2]” was 27 min; in “in vitro [7]”, above 30 min; in “in vitro [8]”, above 30 min.

As for `O=C(Nc1ccncc1)Nc1ccc(-c2nc(N3CCOCC3)c3ccn(CCN4CCNCC4)c3n2)cc1`, inhibition in the data set on PC-3 was half-maximal at 2330 nM (IC50). In addition, the solubility in data set [1] was above 100 µg/mL. The molecule also registered a half-life in “in vitro [2]” of 4 min.

As to `CN(C)C1CCN(C(=O)c2ccc(NC(=O)Nc3ccc(-c4nc(N5CCOCC5)c5ccn(CC(F)(F)F)c5n4)cc3)cc2)CC1`, the results for the IC50 in the data set with PC-3 and in the data set with MDA-MB-361 were 45 nM and 11 nM, respectively. The same molecule registered a solubility in data set [1] of 1 µg/mL (≈ 1.54 µM). The half-life in “in vitro [2]” is above 30 min.

Take `CCn1ccc2c(N3CCOCC3)nc(-c3ccc(NC(=O)Nc4ccc(C(=O)NCCN(C)C)cc4)cc3)nc21`: the IC50 came to 0.5 nM in data set [3], 26.5 nM with PC-3, 1.8 nM in [4] and 5.5 nM with MDA-MB-361. This molecule gave a solubility in [1] of 1 µg/mL (≈ 1.8 µM). The half-life in the data set “in vitro [2]” and in “in vitro [8]” was above 30 min in each case.

Regarding `CCn1ccc2c(N3CCOCC3)nc(-c3ccc(NC(=O)Nc4ccc(C(=O)N5CCN(C)CC5)cc4)cc3)nc21`, the IC50 in data set [3] was 1.4 nM; with PC-3, 17 nM; in data set [4], 2.7 nM; in the data set on MDA-MB-361, 4.5 nM. In addition, the half-life was 15 min in the data set “in vitro [2]” and above 30 min in “in vitro [8]”.

Take `CCn1ccc2c(N3CCOCC3)nc(-c3ccc(NC(=O)Nc4ccc(C(=O)N5CCNCC5)cc4)cc3)nc21`: the IC50 worked out at 0.9 nM in data set [3], 27 nM in the data set on PC-3, 0.8 nM in data set [4] and 4.5 nM with MDA-MB-361. The molecule also returned a solubility in [1] of 1 µg/mL (≈ 1.8 µM). In addition, the half-life in the data set “in vitro [2]” and in “in vitro [8]” was above 30 min in each case.

On to `CN(C)CCn1ccc2c(N3CCOCC3)nc(-c3ccc(NC(=O)Nc4ccccn4)cc3)nc21`, for which 882 nM corresponded to half-maximal inhibition with PC-3 (IC50). Moreover, in data set [1], the solubility was 21 µg/mL (≈ 43.2 µM). This molecule also yielded a half-life in the data set “in vitro [2]” of 5 min.

Take `CN(C)CCn1ccc2c(N3CCOCC3)nc(-c3ccc(NC(=O)Nc4cccnc4)cc3)nc21`: the IC50 in [3] amounted to 3 nM; with PC-3, 137 nM. This molecule returned a solubility in data set [1] of 52 µg/mL (≈ 107 µM). In “in vitro [2]”, this molecule gave a half-life of 9 min.

For the molecule `Oc1cccc(-c2nc(N3CCOCC3)c3[nH]ccc3n2)c1`, the midpoint of inhibition with PC-3, the IC50, lay at 1550 nM.

Take `CN(C)CCn1ccc2c(N3CCOCC3)nc(-c3ccc(NC(=O)Nc4ccncc4)cc3)nc21`: the IC50 with PC-3 turned out to be 100 nM; in [4], 8 nM. Also, the concentration in solution in [1] (solubility) came to 52 µg/mL (≈ 107 µM). Also, the half-life in the data set “in vitro [2]” was determined as 2 min.

`OCc1cccc(-c2nc(N3CCOCC3)c3ncn(C4CCN(Cc5ccccc5)CC4)c3n2)c1` returned a half-life in “in vitro [2]” of 2 min.

These data come from ChEMBL document CHEMBL1156188, “Synthesis and SAR of novel 4-morpholinopyrrolopyrimidine derivatives as potent phosphatidylinositol 3-kinase inhibitors” (J Med Chem, 2010).
